# Reference: PMC8286840, “Identifying SARS-CoV-2 antiviral compounds by screening for small molecule inhibitors of Nsp3 papain-like protease” (Biochemical Journal, 2021)
# Where a name gives a salt, the structure may show the parent alone. Read-outs that look alike come from different tables or passages of the source.
# Legend:
# [1] = target: T1, SARS-CoV-2 PLpro (nsp3 1564–1878) (Severe acute respiratory syndrome coronavirus 2, UniProt P0DTD1); assay: biochemical; set-up: FRET-quenched peptide (Pro3) cleavage by PLpro, 10 min pre-incubation, slope over 20 min, normalised to no-compound control; settings: high concentration screen, read-out: % of control remaining
# [2] = target: T1, SARS-CoV-2 PLpro (nsp3 1564–1878); assay: biochemical; set-up: FRET-quenched peptide (Pro3) cleavage by PLpro, 10 min pre-incubation, slope over 20 min, normalised to no-compound control; settings: low concentration screen, read-out: % of control remaining
smiles,measurement,setting,value
C[C@@H](Nc1cc(NS(=O)(=O)N2CCC2)nc(SCc2cccc(F)c2F)n1)[C@@H](O)CO [SRT3109],remaining activity at 3.75 µM,[1]; Well no.=8607,104%
same,remaining activity at 1.25 µM,[2]; Well no.=8607,108%
C[C@H](Nc1cc(NS(=O)(=O)N2CCC2)nc(SCc2cccc(F)c2F)n1)[C@@H](O)CO [SRT3190],remaining activity at 3.75 µM,[1]; Well no.=7438,104%
same,remaining activity at 3.75 µM,[1]; Well no.=8507,97.8%
same,remaining activity at 1.25 µM,[2]; Well no.=7438,104%
same,remaining activity at 1.25 µM,[2]; Well no.=8507,98.1%
O=c1cc(C(Cl)(Cl)Cl)oc2ccc(Cl)cc12 [ST034307],remaining activity at 3.75 µM,[1]; Well no.=7185,95.4%
same,remaining activity at 1.25 µM,[2]; Well no.=7185,103%
CCCN(CCN1CCN(c2ccccc2OC)CC1)C1CCc2ncsc2C1 (centres unmarked) [ST-836 (hydrochloride)],remaining activity at 3.75 µM,[1]; Well no.=8445,92.2%
same,remaining activity at 1.25 µM,[2]; Well no.=8445,89.3%
CC(C)(C)c1ccc(S(=O)(=O)NCc2ccc(C(=O)Nc3cccnc3)cc2)cc1 [STF-31],remaining activity at 3.75 µM,[1]; Well no.=6059,94.5%
same,remaining activity at 1.25 µM,[2]; Well no.=6059,94.9%
Cc1cccc(Nc2nc(-c3ccncc3)cs2)c1 [STF-62247],remaining activity at 3.75 µM,[1]; Well no.=4615,106%
same,remaining activity at 1.25 µM,[2]; Well no.=4615,102%
Cc1ccc(S(=O)(=O)Cc2nc(-c3ccc(C(=O)NCc4cccnc4)cc3)oc2C)cc1 [STF-118804],remaining activity at 3.75 µM,[1]; Well no.=5552,91.7%
same,remaining activity at 1.25 µM,[2]; Well no.=5552,90.7%
O=C(NCc1ccco1)c1ccc2c(c1)N(Cc1c(F)cccc1Cl)C(=O)CS2 [STING agonist-1],remaining activity at 3.75 µM,[1]; Well no.=8643,103%
same,remaining activity at 1.25 µM,[2]; Well no.=8643,102%
O=C(O)c1ccc2c3c1cccc3c(=O)n1c3ccccc3nc21 [STO-609],remaining activity at 3.75 µM,[1]; Well no.=2658,89.5%
same,remaining activity at 1.25 µM,[2]; Well no.=2658,90%
CN(C)S(=O)(=O)c1ccc2c(c1)/C(=C/c1cc3c([nH]1)CCCC3)C(=O)N2 [SU6656],remaining activity at 3.75 µM,[1]; Well no.=2500,99.1%
same,remaining activity at 3.75 µM,[1]; Well no.=8074,98.5%
same,remaining activity at 1.25 µM,[2]; Well no.=2500,94.8%
same,remaining activity at 1.25 µM,[2]; Well no.=8074,101%
COc1ccc2c(c1)/C(=C/c1cnc[nH]1)C(=O)N2 [SU9516],remaining activity at 3.75 µM,[1]; Well no.=2660,94.4%
same,remaining activity at 1.25 µM,[2]; Well no.=2660,96.5%
Cc1[nH]c(/C=C2\C(=O)Nc3ccc(S(=O)(=O)N(C)c4cccc(Cl)c4)cc32)c(C)c1C(=O)N1CCN(C)CC1 [SU11274],remaining activity at 3.75 µM,[1]; Well no.=8164,94.4%
same,remaining activity at 1.25 µM,[2]; Well no.=8164,95.8%
CCN(CC)CCNC(=O)c1c(C)[nH]c(/C=C2\C(=O)Nc3ccc(Cl)cc32)c1C [SU11652],remaining activity at 3.75 µM,[1]; Well no.=2565,93.7%
same,remaining activity at 1.25 µM,[2]; Well no.=2565,93.6%
"CN(C)c1ccc(/C=C2\C(=O)Nc3ccccc32)cc1 [SU 4312 - 3-[[4-(dimethylamino)phenyl]methylene]-1,3-dihydro-2H-indol-2-one]",remaining activity at 3.75 µM,[1]; Well no.=2430,109%
same,remaining activity at 1.25 µM,[2]; Well no.=2430,106%
CN(C)c1ccc(/C=C2\C(=O)Nc3ccccc32)cc1 [SU 4312],remaining activity at 3.75 µM,[1]; Well no.=1179,101%
same,remaining activity at 1.25 µM,[2]; Well no.=1179,97.9%
Cc1c[nH]c(/C=C2\C(=O)Nc3ccccc32)c1CCC(=O)O [SU-5402],remaining activity at 3.75 µM,[1]; Well no.=3037,95.9%
same,remaining activity at 1.25 µM,[2]; Well no.=3037,96.3%
CCCC[S+]([O-])c1sc2nc(-c3cccs3)cc(-c3ccccc3)c2c1N (centres unmarked) [SW033291],remaining activity at 3.75 µM,[1]; Well no.=8674,97.5%
same,remaining activity at 1.25 µM,[2]; Well no.=8674,101%
CCc1cc2c(=O)c(-c3nc4ccccc4s3)coc2c(CN2CCCCC2)c1O [SZL P1-41],remaining activity at 3.75 µM,[1]; Well no.=6694,102%
same,remaining activity at 1.25 µM,[2]; Well no.=6694,103%
C[C@H](NCc1ccc(OCc2cccc(F)c2)cc1)C(N)=O [Safinamide mesylate salt],remaining activity at 3.75 µM,[1]; Well no.=5442,94.5%
same,remaining activity at 1.25 µM,[2]; Well no.=5442,89.5%
CC(C)(C)NCC(O)c1ccc(O)c(CO)c1 (centres unmarked) [Salbutamol (hemisulfate)],remaining activity at 3.75 µM,[1]; Well no.=7577,96.7%
same,remaining activity at 1.25 µM,[2]; Well no.=7577,95.6%
CC(C)(C)NCC(O)c1ccc(O)c(CO)c1 (centres unmarked) [Salbutamol],remaining activity at 3.75 µM,[1]; Well no.=1366,101%
same,remaining activity at 1.25 µM,[2]; Well no.=1366,101%
CC[C@@H](C(=O)[C@@H](C)[C@@H](O)[C@H](C)[C@@H]1O[C@@H]([C@@H](CC)C(=O)O)CC[C@@H]1C)[C@H]1O[C@]2(C=C[C@@H](O)[C@]3(CC[C@@](C)([C@H]4CC[C@](O)(CC)[C@H](C)O4)O3)O2)[C@H](C)C[C@@H]1C [Salinomycin],remaining activity at 3.75 µM,[1]; Well no.=3499,102%
same,remaining activity at 1.25 µM,[2]; Well no.=3499,104%
CC(C)=CCC/C(C)=C/CC/C(C)=C/CSc1ccccc1C(=O)O [Salirasib],remaining activity at 3.75 µM,[1]; Well no.=6668,105%
same,remaining activity at 1.25 µM,[2]; Well no.=6668,104%
OCc1cc(C(O)CNCCCCCCOCCCCc2ccccc2)ccc1O (centres unmarked) [Salmeterol],remaining activity at 3.75 µM,[1]; Well no.=1414,99.5%
same,remaining activity at 1.25 µM,[2]; Well no.=1414,98.7%
COc1cc2c(cc1O)CCN[C@@H]2C [Salsoline],remaining activity at 3.75 µM,[1]; Well no.=3715,102%
same,remaining activity at 1.25 µM,[2]; Well no.=3715,100%
O=C(/C=C/c1ccccc1)NC(NC(=S)Nc1cccc2cccnc12)C(Cl)(Cl)Cl (centres unmarked) [Salubrinal],remaining activity at 3.75 µM,[1]; Well no.=4877,99.5%
same,remaining activity at 1.25 µM,[2]; Well no.=4877,98.9%
C[n+]1cc2c3c(ccc2c2ccc4cc5c(cc4c21)OCO5)OCO3 [Sanguinarine (chloride)],remaining activity at 3.75 µM,[1]; Well no.=6636,98.9%
same,remaining activity at 1.25 µM,[2]; Well no.=6636,99.4%
C[n+]1cc2c3c(ccc2c2ccc4cc5c(cc4c21)OCO5)OCO3 [Sanguinarine chloride],remaining activity at 3.75 µM,[1]; Well no.=1458,86.2%
same,remaining activity at 1.25 µM,[2]; Well no.=1458,87.2%
C[n+]1cc2c3c(ccc2c2ccc4cc5c(cc4c21)OCO5)OCO3 [Sanguinarine],remaining activity at 3.75 µM,[1]; Well no.=3779,90.1%
same,remaining activity at 1.25 µM,[2]; Well no.=3779,94.3%
CC1=C2[C@H]3OC(=O)[C@@H](C)[C@@H]3CC[C@@]2(C)C=CC1=O [Santonin],remaining activity at 3.75 µM,[1]; Well no.=3717,95.8%
same,remaining activity at 1.25 µM,[2]; Well no.=3717,90%
CCCCCCCCCCCCCCCC(=O)Nc1ccn([C@@H]2O[C@H](CO)[C@@H](O)[C@@H]2C#N)c(=O)n1 [Sapacitabine],remaining activity at 3.75 µM,[1]; Well no.=7908,102%
same,remaining activity at 1.25 µM,[2]; Well no.=7908,98.8%
O=C(O)c1cn(-c2ccc(F)cc2)c2cc(N3CCNCC3)c(F)cc2c1=O [Sarafloxacin],remaining activity at 3.75 µM,[1]; Well no.=2241,101%
same,remaining activity at 1.25 µM,[2]; Well no.=2241,101%
CNCC(=O)O [Sarcosine],remaining activity at 3.75 µM,[1]; Well no.=6727,102%
same,remaining activity at 1.25 µM,[2]; Well no.=6727,103%
COc1cccc(CCc2ccccc2OCC(CN(C)C)OC(=O)CCC(=O)O)c1 (centres unmarked) [Sarpogrelate (hydrochloride)],remaining activity at 3.75 µM,[1]; Well no.=6228,96.1%
same,remaining activity at 1.25 µM,[2]; Well no.=6228,106%
C[C@H]1CC[C@@]2(OC1)O[C@H]1C[C@H]3[C@@H]4CC[C@@H]5C[C@@H](O)CC[C@]5(C)[C@H]4CC[C@]3(C)[C@H]1[C@@H]2C [Sarsasapogenin],remaining activity at 3.75 µM,[1]; Well no.=3102,92.8%
same,remaining activity at 1.25 µM,[2]; Well no.=3102,95%
